Paper PMC12125794 (Annals of Clinical Microbiology and Antimicrobials, 2025)

Assays:
KPC-2 [1] = biological target: T1, KPC-2 (Klebsiella pneumoniae, UniProt Q9F663); format: biochemical
KPC-2 [2] = biological target: T1, KPC-2; format: biochemical; remark: listed apart in the source

T1 sequence (Q9F663 25-293 limits assumed): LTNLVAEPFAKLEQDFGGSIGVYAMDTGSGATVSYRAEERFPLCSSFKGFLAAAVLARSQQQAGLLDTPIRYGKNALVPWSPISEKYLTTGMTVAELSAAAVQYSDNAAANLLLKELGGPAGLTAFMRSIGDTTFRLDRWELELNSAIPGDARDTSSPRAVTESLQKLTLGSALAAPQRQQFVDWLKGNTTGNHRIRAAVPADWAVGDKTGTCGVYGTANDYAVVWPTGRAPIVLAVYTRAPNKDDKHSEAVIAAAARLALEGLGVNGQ

SMILES | hydrolysis progress curves at 300 nm, 30 nM purified enzyme, 50 μM meropenem (KPC-2 [1]) | steady-state hydrolysis kinetics (Michaelis-Menten), purified enzyme (KPC-2 [2])
C[C@@H](O)[C@H]1C(=O)N2C(C(=O)O)=C(S[C@@H]3CN[C@H](C(=O)N(C)C)C3)[C@H](C)[C@H]12 [meropenem] | Compared with KPC-2, catalytic efficiencies of KPC-87 for nitrocefin and meropenem decreased sharply | –
O=C(Cc1cccs1)N[C@@H]1C(=O)N2C(C(=O)O)=C(/C=C/c3ccc([N+](=O)[O-])cc3[N+](=O)[O-])CS[C@H]12 [nitrocefin] | – | Compared with KPC-2, catalytic efficiencies of KPC-87 for nitrocefin and meropenem decreased sharply
